Data set [1] is described as follows: H+/Na+ transport assay of bead-derived peptides (one-point).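 Further: relative to parent gramicidin A activity set to 1.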 The class given is biochemical. The arrangement: key: relative activity; mean of two control wells = 1.00. As to conditions: bead-derived peptide solution, EYPC/EYPG LUVs. The essentials:
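H+/Na+ transport is monitored through pyranine fluorescence in freshly extruded LUVs after a 30-min room-temperature vortex with each library peptide at a single concentration. Signals are normalized to detergent (Triton X-100) and untreated controls.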

For data set [2], the system named is P388 mouse leukemia cells. As to conditions: 92 h. In a few lines: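 Peptide stocks diluted 250× in growth medium; P388 cells 1 × 10^4 cells/mL final; 37 °C, 5% CO2, 92 h. WST-1 + 1-methoxy PMS, 4 h, A415. Output: % viability.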
Data set [3] relates to Streptococcus pyogenes SSI-9. Put plainly: Antibacterial activity assay of bead-derived peptides (three concentrations). As to conditions: S. pyogenes, bead-derived peptide solution, three concentrations. In kind it is cell-based. Further details: key: +++: inhibition by the 640-fold diluted peptide solution; ++: inhibition by the 160-fold diluted solution; +: inhibition by the 40-fold diluted solution; -: no inhibition. In a few lines: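 Growth inhibition scored visually as precipitated bacteria after 37 °C, 18 h incubation. Streptococcus pyogenes SSI-9 inoculum of 2 × 10^5 CFU in Ca2+/Mg2+-adjusted Mueller Hinton broth plus 5% laked horse blood; peptides tested at three levels: stock, 4-fold and 16-fold DMSO dilutions.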

Where a SMILES comes first, the peptide text is derived from it. [ ]: non-standard residue; d: D form. The star is where a group is joined. NHCH2CH2OH = OCCN*; For = O=C*

The text below walks through data of PMC7531004, “Discovery of gramicidin A analogues with altered activities by multidimensional screening of a one-bead-one-compound library” (Nature Communications, 2020).

On to `CC(C)C[C@@H](NC(=O)[C@H](Cc1c[nH]c2ccccc12)NC(=O)[C@H](NC(=O)[C@H](Cc1c[nH]c2ccccc12)NC(=O)[C@H](NC(=O)[C@H](Cc1c[nH]c2ccccc12)NC(=O)[C@@H](CC(C)C)NC(=O)[C@@H](NC(=O)[C@H](NC(=O)[C@H](C)NC(=O)[C@H](NC(=O)[C@H](C)NC(=O)CNC(=O)[C@@H](NC=O)C(C)C)C(C)C)C(C)C)C(C)C)C(C)C)C(C)C)C(=O)N[C@@H](Cc1c[nH]c2ccccc12)C(=O)NCCO` [compound 12721] (For-VGA[dV]A[dV]V[dL]W[dV]W[dV]W[dL]W-NHCH2CH2OH), for which the “H+/Na+ transport activity normalized against the value of 1 (1.00)” value (from here on “H+/Na+ transport activity normalized”) in data set [1] worked out at 1.04. In data set [2], the cell viability/% is listed as 51.7%. Also, the antibacterial activity result in data set [3] is reported as “+”.
The matching figures for `CC(C)C[C@@H](NC(=O)[C@H](C)NC(=O)[C@H](NC(=O)[C@H](C)NC(=O)CNC(=O)[C@@H](NC=O)C(C)C)C(C)C)C(=O)N[C@H](C(=O)N[C@@H](C(=O)N[C@@H](Cc1c[nH]c2ccccc12)C(=O)N[C@H](CC(C)C)C(=O)N[C@@H](Cc1c[nH]c2ccccc12)C(=O)N[C@H](CC(C)C)C(=O)N[C@@H](Cc1c[nH]c2ccccc12)C(=O)N[C@@H](C(=O)N[C@@H](Cc1c[nH]c2ccccc12)C(=O)NCCO)C(C)C)C(C)C)C(C)C` [compound 12789] (For-VGA[dV]A[dL]V[dV]W[dL]W[dL]W[dV]W-NHCH2CH2OH): 1.04, 9.6% and “-”.
As to `CC(C)C[C@@H](NC(=O)[C@H](C)NC(=O)[C@H](NC(=O)[C@H](C)NC(=O)CNC(=O)[C@@H](NC=O)C(C)C)C(C)C)C(=O)N[C@H](C(=O)N[C@H](CC(C)C)C(=O)N[C@@H](Cc1c[nH]c2ccccc12)C(=O)N[C@H](CC(C)C)C(=O)N[C@@H](Cc1c[nH]c2ccccc12)C(=O)N[C@H](CC(C)C)C(=O)N[C@@H](Cc1c[nH]c2ccccc12)C(=O)N[C@H](CC(C)C)C(=O)N[C@@H](Cc1c[nH]c2ccccc12)C(=O)NCCO)C(C)C` [compound 12877] (For-VGA[dV]A[dL]V[dL]W[dL]W[dL]W[dL]W-NHCH2CH2OH), in data set [1], the “H+/Na+ transport activity normalized” value was determined as 1.04. In data set [2], this compound returned a cell viability/% of 4.7%. Further, the antibacterial activity entry in data set [3] is on record as “-”.
Taken in the same sequence, the figures for `CC(C)C[C@@H](NC(=O)[C@H](Cc1c[nH]c2ccccc12)NC(=O)[C@H](NC(=O)[C@H](Cc1c[nH]c2ccccc12)NC(=O)[C@@H](CC(C)C)NC(=O)[C@@H](NC(=O)[C@H](NC(=O)[C@H](C)NC(=O)[C@H](NC(=O)[C@H](C)NC(=O)CNC(=O)[C@@H](NC=O)C(C)C)C(C)C)C(C)C)C(C)C)C(C)C)C(=O)N[C@@H](Cc1c[nH]c2ccccc12)C(=O)N[C@@H](C(=O)N[C@@H](Cc1c[nH]c2ccccc12)C(=O)NCCO)C(C)C` [compound 12947] (For-VGA[dV]A[dV]V[dL]W[dV]W[dL]W[dV]W-NHCH2CH2OH) were 1.02, 10.2% and “+”.
As to `CC(C)C[C@@H](NC(=O)[C@H](C)NC(=O)[C@H](NC(=O)[C@H](C)NC(=O)CNC(=O)[C@@H](NC=O)C(C)C)C(C)C)C(=O)N[C@H](C(=O)N[C@@H](C(=O)N[C@@H](Cc1c[nH]c2ccccc12)C(=O)N[C@@H](C(=O)N[C@@H](Cc1c[nH]c2ccccc12)C(=O)N[C@H](CC(C)C)C(=O)N[C@@H](Cc1c[nH]c2ccccc12)C(=O)N[C@@H](C(=O)N[C@@H](Cc1c[nH]c2ccccc12)C(=O)NCCO)C(C)C)C(C)C)C(C)C)C(C)C` [compound 12950] (For-VGA[dV]A[dL]V[dV]W[dV]W[dL]W[dV]W-NHCH2CH2OH), the “H+/Na+ transport activity normalized” value in data set [1] is recorded as 1.08. The cell viability/% in data set [2] came to 97.0%. Also, in data set [3], the antibacterial activity entry was “+”.
Take `CC(C)C[C@@H](NC(=O)[C@H](C)NC(=O)CNC(=O)[C@@H](NC=O)C(C)C)C(=O)N[C@@H](C)C(=O)N[C@@H](C(=O)N[C@H](C(=O)N[C@@H](C(=O)N[C@@H](Cc1c[nH]c2ccccc12)C(=O)N[C@H](CC(C)C)C(=O)N[C@@H](Cc1c[nH]c2ccccc12)C(=O)N[C@H](CC(C)C)C(=O)N[C@@H](Cc1c[nH]c2ccccc12)C(=O)N[C@H](CC(C)C)C(=O)N[C@@H](Cc1c[nH]c2ccccc12)C(=O)NCCO)C(C)C)C(C)C)C(C)C` [compound 12972] (For-VGA[dL]A[dV]V[dV]W[dL]W[dL]W[dL]W-NHCH2CH2OH): the “H+/Na+ transport activity normalized” value in data set [1] is on record as 1.33. The compound also came in with a cell viability/% in data set [2] of 0.0%. In addition, in data set [3], the antibacterial activity entry is listed as “++”.
Take `CNC(=O)C[C@@H](NC(=O)[C@@H](NC(=O)[C@@H](CC(C)C)NC(=O)[C@H](C)NC(=O)[C@H](NC(=O)[C@H](C)NC(=O)CNC(=O)[C@@H](NC=O)C(C)C)C(C)C)C(C)C)C(=O)N[C@@H](Cc1c[nH]c2ccccc12)C(=O)N[C@@H](C(=O)N[C@@H](Cc1c[nH]c2ccccc12)C(=O)N[C@H](CC(C)C)C(=O)N[C@@H](Cc1c[nH]c2ccccc12)C(=O)N[C@H](CC(C)C)C(=O)N[C@@H](Cc1c[nH]c2ccccc12)C(=O)NCCO)C(C)C` [compound 12975] (For-VGA[dV]A[dL]V[dD](NHMe)W[dV]W[dL]W[dL]W-NHCH2CH2OH): the “H+/Na+ transport activity normalized” value in data set [1] is 1.43. Moreover, the cell viability/% in data set [2] is on record as 86.0%. Further, the antibacterial activity result in data set [3] was “-”.
As for `CC(C)C[C@@H](NC(=O)[C@H](C)NC(=O)CNC(=O)[C@@H](NC=O)C(C)C)C(=O)N[C@@H](C)C(=O)N[C@@H](C(=O)N[C@H](C(=O)N[C@H](CC(C)C)C(=O)N[C@@H](Cc1c[nH]c2ccccc12)C(=O)N[C@@H](C(=O)N[C@@H](Cc1c[nH]c2ccccc12)C(=O)N[C@@H](C(=O)N[C@@H](Cc1c[nH]c2ccccc12)C(=O)N[C@@H](C(=O)N[C@@H](Cc1c[nH]c2ccccc12)C(=O)NCCO)[C@H](C)O)C(C)C)C(C)C)C(C)C)C(C)C` [compound 12984] (For-VGA[dL]A[dV]V[dL]W[dV]W[dV]W[dT]W-NHCH2CH2OH), the “H+/Na+ transport activity normalized” value in data set [1] was 1.08. Besides, the cell viability/% in data set [2] amounted to 81.1%. The antibacterial activity result in data set [3] is “-”.
For the compound `CC(C)C[C@@H](NC(=O)[C@H](C)NC(=O)CNC(=O)[C@@H](NC=O)C(C)C)C(=O)N[C@@H](C)C(=O)N[C@H](CC(C)C)C(=O)N[C@H](C(=O)N[C@H](CC(C)C)C(=O)N[C@@H](Cc1c[nH]c2ccccc12)C(=O)N[C@H](CC(C)C)C(=O)N[C@@H](Cc1c[nH]c2ccccc12)C(=O)N[C@@H](C(=O)N[C@@H](Cc1c[nH]c2ccccc12)C(=O)N[C@@H](C(=O)N[C@@H](Cc1c[nH]c2ccccc12)C(=O)NCCO)C(C)C)[C@H](C)O)C(C)C` [compound 12989] (For-VGA[dL]A[dL]V[dL]W[dL]W[dT]W[dV]W-NHCH2CH2OH), in data set [1], the “H+/Na+ transport activity normalized” value stood at 1.16. For the same compound, in data set [2], the cell viability/% turned out to be 100.0%. Besides, the antibacterial activity result in data set [3] was “+”.
On to `CC(C)C[C@@H](NC(=O)[C@H](C)NC(=O)[C@H](NC(=O)[C@H](C)NC(=O)CNC(=O)[C@@H](NC=O)C(C)C)C(C)C)C(=O)N[C@H](C(=O)N[C@@H](C(=O)N[C@@H](Cc1c[nH]c2ccccc12)C(=O)N[C@@H](C(=O)N[C@@H](Cc1c[nH]c2ccccc12)C(=O)N[C@@H](C(=O)N[C@@H](Cc1c[nH]c2ccccc12)C(=O)N[C@@H](C(=O)N[C@@H](Cc1c[nH]c2ccccc12)C(=O)NCCO)C(C)C)C(C)C)C(C)C)C(C)C)C(C)C` [compound 13030] (For-VGA[dV]A[dL]V[dV]W[dV]W[dV]W[dV]W-NHCH2CH2OH), for which the “H+/Na+ transport activity normalized” value in data set [1] was 1.42. The same compound yielded a cell viability/% in data set [2] of 99.9%. Also, the antibacterial activity result in data set [3] is “+”.
The matching figures for `CC(C)C[C@@H](NC(=O)[C@H](Cc1c[nH]c2ccccc12)NC(=O)[C@H](NC(=O)[C@H](Cc1c[nH]c2ccccc12)NC(=O)[C@H](NC(=O)[C@H](Cc1c[nH]c2ccccc12)NC(=O)[C@H](NC(=O)[C@@H](NC(=O)[C@H](NC(=O)[C@H](C)NC(=O)[C@H](NC(=O)[C@H](C)NC(=O)CNC(=O)[C@@H](NC=O)C(C)C)C(C)C)[C@H](C)O)C(C)C)C(C)C)C(C)C)C(C)C)C(=O)N[C@@H](Cc1c[nH]c2ccccc12)C(=O)NCCO` [compound 13062] (For-VGA[dV]A[dT]V[dV]W[dV]W[dV]W[dL]W-NHCH2CH2OH): 1.06, 92.8% and “-”.
In the case of `CNC(=O)C[C@@H](NC(=O)[C@H](C)NC(=O)[C@@H](CC(C)C)NC(=O)[C@H](C)NC(=O)CNC(=O)[C@@H](NC=O)C(C)C)C(=O)N[C@H](C(=O)N[C@@H](C(=O)N[C@@H](Cc1c[nH]c2ccccc12)C(=O)N[C@H](CC(C)C)C(=O)N[C@@H](Cc1c[nH]c2ccccc12)C(=O)N[C@@H](C(=O)N[C@@H](Cc1c[nH]c2ccccc12)C(=O)N[C@H](CC(C)C)C(=O)N[C@@H](Cc1c[nH]c2ccccc12)C(=O)NCCO)C(C)C)C(C)C)C(C)C` [compound 13123] (For-VGA[dL]A[dD](NHMe)V[dV]W[dL]W[dV]W[dL]W-NHCH2CH2OH), the “H+/Na+ transport activity normalized” value in data set [1] was 1.24. This compound also returned a cell viability/% in data set [2] of 100.0%. Further, the antibacterial activity entry in data set [3] was “-”.
